The target of assay [1] is T1, human EP1 receptor (Homo sapiens, UniProt P34995).
T1 construct: expressed in transfected cells; host or cells: CHO-K1
T1 sequence (P34995 1-402): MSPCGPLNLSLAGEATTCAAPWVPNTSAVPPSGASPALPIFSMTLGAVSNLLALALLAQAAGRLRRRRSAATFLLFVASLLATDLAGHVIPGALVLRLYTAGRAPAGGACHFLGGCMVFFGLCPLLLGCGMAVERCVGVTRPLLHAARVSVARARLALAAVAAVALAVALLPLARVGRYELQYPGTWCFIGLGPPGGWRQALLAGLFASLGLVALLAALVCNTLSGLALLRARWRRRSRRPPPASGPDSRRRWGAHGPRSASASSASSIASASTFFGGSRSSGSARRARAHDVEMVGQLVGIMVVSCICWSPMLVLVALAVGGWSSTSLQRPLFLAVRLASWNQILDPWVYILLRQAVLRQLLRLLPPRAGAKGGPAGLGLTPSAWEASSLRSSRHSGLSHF
Briefly: Binding assay for the human prostanoid EP1 receptor (competition with [3H]-PGE2). Particulars: binding to human EP1 receptor, [3H]-PGE2 competition, CHO-K1 cell membranes; averages of a number of experiments; read-out: pIC50 value (converted). Here is the method: Competition assay using [^3H]-PGE2.
Compound potencies are determined using a radioligand binding assay. In this assay compound potencies are determined from their ability to compete with tritiated prostaglandin E2 ([^3H]-PGE2) for binding to the human EP1 receptor.
This assay utilises Chinese hamster ovary-K1 (CHO-K1) cells into which a stable vector containing the EP1 cDNA has previously been transfected. Cells are cultured in suitable flasks containing culture medium such as DMEM:F-12 supplemented with 10% v/v foetal calf serum, 2 mM L-glutamine, 0.25 mg/ml geneticin, 10 μg/ml puromycin and 10 μM indomethacin.
Cells are detached from the culture flasks by incubation in calcium and magnesium free phosphate buffered saline containing 1 mM disodium ethylenediaminetetraacetic acid (Na2EDTA) and 10 μM indomethacin for 5 min. The cells are isolated by centrifugation at 250×g for 5 mins and suspended in an ice cold buffer such as 50 mM Tris, 1 mM Na2EDTA, 140 mM NaCl, 10 μM indomethacin (pH 7.4). The cells are homogenised using a Polytron tissue disrupter (2×10 s burst at full setting), centrifuged at 48,000×g for 20 mins and the pellet containing the membrane fraction is washed (optional) three times by suspension and centrifugation at 48,000×g for 20 mins. The final membrane pellet is suspended in an assay buffer such as 10 mM 2-[N-morpholino]ethanesulphonic acid, 1 mM Na2EDTA, 10 mM MgCl2 (pH 6). Aliquots are frozen at −80° C. until required.
For the binding assay the cell membranes, competing compounds and [^3H]-PGE2 (3 nM final assay concentration) are incubated in a final volume of 100 μl for 30 min at 30° C. All reagents are prepared in assay buffer. Reactions are terminated by rapid vacuum filtration over GF/B filters using a Brandell cell harvester. The filters are washed with ice cold assay buffer, dried and the radioactivity retained on the filters is measured by liquid scintillation counting in Packard TopCount scintillation counter.
The data are analysed using non linear curve fitting techniques to determine the concentration of compound producing 50% inhibition of specific binding (IC50).

Assay [2] addresses T1, human EP1 receptor. The assay can be described thus: human EP1 calcium mobilisation assay. Type of assay: cell-based. To be noted: human EP1, PGE2-induced calcium mobilisation in CHO-K1 cells; free bases or sodium salts; averages of a number of experiments; read-out: functional pKi value (converted). A digest of the protocol:
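CHO-K1 cells stably expressing human EP1, loaded with Fluo-4 after 24 h at 37° C; compounds added before PGE2 challenge. Inhibition of PGE2-induced [Ca2+]i rise read by FLIPR fluorescence; pIC50 from curve fitting of half-maximal inhibition.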
On the technique in general: Calcium assays in cells follow changes in intracellular calcium, usually with a dye or a luminescent sensor.

Structures can show the parent of a compound that is named as a salt. Some results are limits rather than exact numbers.

Regarding `O=C(O)c1ccc(Cc2cc(Cl)ccc2OCC2CC2)o1` [Example 3, Sodium 5-({5-chloro-2-[(cyclopropylmethyl)oxy]phenyl}methyl)-2-furancarboxylate], the IC50 on human EP1 receptor [1] is ≤ 10 nM. Moreover, on human EP1 receptor [2], the Ki is < 1000 nM.
As to `O=C(O)c1ccc(Cc2cc(Cl)ccc2OC2CCCC2)o1` [Example 5, Sodium 5-{[5-chloro-2-(cyclopentyloxy)phenyl]methyl}-2-furancarboxylate], at human EP1 receptor [1], the IC50 was ≤ 10 nM. For the same molecule, the Ki on human EP1 receptor [2] was ≤ 10 nM.
With `O=C(O)c1ccc(Cc2cc(Cl)ccc2OCC2CCCCC2)o1` [Example 6, Sodium 5-({5-chloro-2-[(cyclohexylmethyl)oxy]phenyl}methyl)-2-furancarboxylate], the IC50 at human EP1 receptor [1] is ≤ 10 nM. At human EP1 receptor [2], the Ki was < 1000 nM.
As to `CCC(CC)COc1ccc(Cl)cc1Cc1ccc(C(=O)O)o1` [Example 7, Sodium 5-({5-chloro-2-[(2-ethylbutyl)oxy]phenyl}methyl)-2-furancarboxylate], at human EP1 receptor [1], the IC50 is ≤ 10 nM. Also, at human EP1 receptor [2], the Ki is ≤ 10 nM.
For the molecule `CC(C)COc1ccc(Cl)cc1Cc1ccc(C(=O)O)o1` [Example 10, Sodium 5-({5-chloro-2-[(2-methylpropyl)oxy]phenyl}methyl)-2-furancarboxylate], the IC50 on human EP1 receptor [1] was ≤ 10 nM. Further, on human EP1 receptor [2], the Ki was < 1000 nM.
For the molecule `Cc1cc(C(=O)O)oc1Cc1cc(Cl)ccc1OCc1ccccc1` [Example 15, Sodium 5-({5-chloro-2-[(phenylmethyl)oxy]phenyl}methyl)-4-methyl-2-furancarboxylate], on human EP1 receptor [1], the IC50 is ≤ 10 nM. The Ki on human EP1 receptor [2] is ≤ 10 nM.
On to `O=C(O)c1ccc(Cc2cc(Cl)ccc2OCc2ccccc2)o1` [Example 18, Sodium 5-({5-chloro-2-[(phenylmethyl)oxy]phenyl}methyl)-2-furancarboxylate], for which the IC50 on human EP1 receptor [1] is ≤ 10 nM. The Ki at human EP1 receptor [2] is ≤ 10 nM.
For `O=C(O)c1ccc(Cc2cc(Cl)ccc2OCc2ccc(F)cc2F)o1` [Example 19, Sodium 5-[(5-chloro-2-{[(2,4-difluorophenyl)methyl]oxy}phenyl)methyl]-2-furancarboxylate], at human EP1 receptor [1], the IC50 was ≤ 10 nM. The Ki on human EP1 receptor [2] is < 1000 nM.
Take `O=C(O)c1ccc(Cc2cc(Cl)ccc2OCc2c(F)cc(F)cc2F)o1` [Example 20, Sodium 5-[(5-chloro-2-{[(2,4,6-trifluorophenyl)methyl]oxy}phenyl)methyl]-2-furancarboxylate]: on human EP1 receptor [1], the IC50 is ≤ 10 nM. Besides, at human EP1 receptor [2], the Ki was < 1000 nM.
Consider `O=C(O)c1ccc(Cc2cc(Cl)ccc2OCc2ccc(F)cc2)o1` [Example 21, Sodium 5-[(5-chloro-2-{[(4-fluorophenyl)methyl]oxy}phenyl)methyl]-2-furancarboxylate], for which the IC50 on human EP1 receptor [1] is ≤ 10 nM. Moreover, at human EP1 receptor [2], the Ki was ≤ 10 nM.
With `O=C(O)c1ccc(Cc2cc(Cl)ccc2OCc2ccc(F)cc2Cl)o1` [Example 22, Sodium 5-[(5-chloro-2-{[(2-chloro-4-fluorophenyl)methyl]oxy}phenyl)methyl]-2-furancarboxylate], the IC50 on human EP1 receptor [1] was ≤ 10 nM. Also, on human EP1 receptor [2], the Ki is ≤ 10 nM.
As to `O=C(O)c1ccc(Cc2cc(Cl)ccc2OCc2ccc(Cl)cc2F)o1` [Example 23, Sodium 5-[(5-chloro-2-{[(4-chloro-2-fluorophenyl)methyl]oxy}phenyl)methyl]-2-furancarboxylate], the IC50 at human EP1 receptor [1] is ≤ 10 nM. Moreover, on human EP1 receptor [2], the Ki was ≤ 10 nM.
Regarding `O=C(O)c1ccc(Cc2cc(Cl)ccc2OCc2cc(F)c(F)cc2F)o1` [Example 25, Sodium 5-[(5-chloro-2-{[(2,4,5-trifluorophenyl)methyl]oxy}phenyl)methyl]-2-furancarboxylate], the IC50 on human EP1 receptor [1] is ≤ 10 nM. Also, the Ki on human EP1 receptor [2] was ≤ 10 nM.
As to `O=C(NS(=O)(=O)c1ccccc1)c1ccc(Cc2cc(Cl)ccc2OCc2ccc(F)cc2F)o1` [Example 35, 5-[(5-Chloro-2-{[(2,4-difluorophenyl)methyl]oxy}phenyl)methyl]-N-(phenylsulfonyl)-2-furancarboxamide], at human EP1 receptor [1], the IC50 is ≤ 10 nM. The Ki at human EP1 receptor [2] is ≤ 10 nM.
Consider `O=C(Nc1c(F)cccc1F)c1ccc(Cc2cc(Cl)ccc2OCc2ccc(F)cc2F)o1` [Example 36, 5-[(5-Chloro-2-{[(2,4-difluorophenyl)methyl]oxy}phenyl)methyl]-N-(2,6-difluorophenyl)-2-furancarboxamide], for which, at human EP1 receptor [1], the IC50 is ≤ 10 nM. Besides, the Ki on human EP1 receptor [2] was ≤ 10 nM.
Turning to `CC(C)COc1ccc(Cl)cc1Cc1ccc(C(=O)NCc2ccccc2)o1` [Example 57, 5-({5-Chloro-2-[(2-methylpropyl)oxy]-phenyl}methyl)-N-(phenylmethyl)-2-furancarboxamide], on human EP1 receptor [1], the IC50 was ≤ 10 nM. Moreover, the Ki on human EP1 receptor [2] is ≤ 10 nM.
Take `O=C(Nc1c(F)cccc1F)c1ccc(Cc2cc(Cl)ccc2OCc2ccc(Cl)cc2F)o1` [Example 84, 5-[(5-Chloro-2-{[(4-chloro-2-fluorophenyl)methyl]oxy}-phenyl)methyl]-N-(2,6-difluorophenyl)-2-furancarboxamide]: the IC50 on human EP1 receptor [1] was ≤ 10 nM. Also, the Ki at human EP1 receptor [2] was < 1000 nM.
As for `CC(C)COc1ccc(Cl)cc1Cc1ccc(-c2nc3ccccc3[nH]2)o1` [Example 98, 2-[5-({5-Chloro-2-[(2-methylpropyl)oxy]phenyl}methyl)-2-furanyl]-1H-benzimidazole], the IC50 at human EP1 receptor [1] was ≤ 10 nM. On human EP1 receptor [2], the Ki is ≤ 10 nM.
Turning to `Clc1ccc(OCc2ccccc2)c(Cc2ccc(-c3nc4ccccc4[nH]3)o2)c1` [Example 99, 2-[5-({5-Chloro-2-[(phenylmethyl)oxy]phenyl}methyl)-2-furanyl]-1H-benzimidazole], on human EP1 receptor [1], the IC50 was ≤ 10 nM. In addition, the Ki at human EP1 receptor [2] is < 1000 nM.
In the case of `COc1nccc2[nH]c(-c3ccc(Cc4cc(Cl)ccc4OCC(C)C)o3)nc12` [Example 104, 2-[5-({5-Chloro-2-[(2-methylpropyl)oxy]-phenyl}methyl)-2-furanyl]-4-(methyloxy)-1H-imidazo[4,5-c]pyridine], the IC50 at human EP1 receptor [1] was ≤ 10 nM. The Ki at human EP1 receptor [2] is ≤ 10 nM.
For `COc1ccc2[nH]c(-c3ccc(Cc4cc(Cl)ccc4OCC(C)C)o3)nc2c1` [Example 105, 2-[5-({5-Chloro-2-[(2-methylpropyl)oxy]-phenyl}methyl)-2-furanyl]-5-(methyloxy)-1H-benzimidazole], the IC50 at human EP1 receptor [1] is ≤ 10 nM. For the same molecule, on human EP1 receptor [2], the Ki is < 1000 nM.
The corresponding values for `CC(C)COc1ccc(Cl)cc1Cc1ccc(-c2nc3nccnc3[nH]2)o1` [Example 106, 2-[5-({5-Chloro-2-[(2-methylpropyl)oxy]-phenyl}methyl)-2-furanyl]-1H-imidazo[4,5-b]pyrazine] are ≤ 10 nM and ≤ 10 nM.
Regarding `CC(C)COc1ccc(Cl)cc1Cc1ccc(-c2nc3cc4cnn(C)c4cc3[nH]2)o1` [Example 107, 6-[5-({5-Chloro-2-[(2-methylpropyl)oxy]-phenyl}methyl)-2-furanyl]-1-methyl-1,5-dihydroimidazo[4,5-f]indazole], the IC50 at human EP1 receptor [1] was ≤ 10 nM. Further, the Ki at human EP1 receptor [2] was < 1000 nM.
Consider `CC(C)COc1ccc(Cl)cc1Cc1ccc(-c2nc3c(F)cccc3[nH]2)o1` [Example 108, 2-[5-({5-Chloro-2-[(2-methylpropyl)oxy]-phenyl}methyl)-2-furanyl]-4-fluoro-1H-benzimidazole], for which the IC50 at human EP1 receptor [1] was ≤ 10 nM. Besides, the Ki at human EP1 receptor [2] was < 1000 nM.
In the case of `CC(C)COc1ccc(Cl)cc1Cc1ccc(-c2nc3cc(N4CCN(C)CC4)ccc3[nH]2)o1` [Example 111, 2-[5-({5-Chloro-2-[(2-methylpropyl)oxy]-phenyl}methyl)-2-furanyl]-5-(4-methyl-1-piperazinyl)-1H-benzimidazoletrihydrochloride], at human EP1 receptor [1], the IC50 was ≤ 10 nM. On human EP1 receptor [2], the Ki is < 1000 nM.

These data come from US20080287430A1, “Furan Compounds Useful As Ep1 Receptor Antagonists” (priority 2005, published 2008).
